# Reference: patent publication US12016829B2, “Pharmaceutical composition and method for treating seizure disorders” (Pike Therapeutics Inc, priority 2019, dated 2024)
# Like-named read-outs stand apart in the source and are kept apart here.
# Key:
# [1] = cited from earlier work
# [2] = significant number of patients, cited from earlier work
# [3] = Oral bioavailability, AUC and plasma concentration of CBD; format: in vivo, patient
# Excerpt: When a medication is orally administered, its bioavailability generally decreases due to incomplete absorption and first-pass metabolism and may vary from patient to patient. The compositions of the disclosure overcome these problems because in transdermal delivery, active agent is delivered directly into systemic circulation through the skin, and it escapes the first pass hepatic metabolism therefore to achieve the desired therapeutic activity less drug is required, resulting into less adverse effects or side effects.
# So, the actual dose delivering to patient upon oral delivery is described in Table 3
# So, 50 sqcm patch with 7.5 ug/sqcm/hr flux will deliver 9 mg of drug in one day. And 100 sqcm of patch will deliver 18 mg of drug with same flux profile.
Compound,Oral AUC ([1]; oral dose 5 mg/kg/day) [ng·h/mL],Oral AUC ([1]; oral dose 10 mg/kg/day) [ng·h/mL],"reduction of total convulsive frequency ([2]; TRE (Dravet syndrome, myoclonic absence seizures, FIRES))",seizure status at the end of three months treatment [2],"bioavailability ([3]; human, in vivo, oral, read-out: average bioavailability taken for calculation) [%]",Avg. Oral Plasma Concentration ([3]; oral dose 5 mg/kg/day) [ng/mL],Avg. Oral Plasma Concentration ([3]; oral dose 10 mg/kg/day) [ng/mL],"share of the administered dose that reaches systemic circulation ([1]; oral administration, hepatic first pass metabolism)"
"C=C(C)[C@@H]1CCC(C)=C[C@H]1c1c(O)cc(CCCCC)cc1O [CBD, 2-[(1R,6R)-6-isopropenyl-3-methylcyclohex-2-en-1-yl]-5-pentylbenzene-1,3-diol]",241,722,greater than 50%,seizure free,15,10.0,30.0,
CCCCCc1cc(O)c2c(c1)OC(C)(C)c1ccc(C)cc1-2 [Cannabinol],,,,,,,,10%-20%
